We go through 2 compounds from patent EP1758924B1, “PEPTIDES ANTAGONISTS FOR […] SHOCK PROTEIN (HSP 16.3) OF MYCOBACTERIUM TUBERCULOSIS” (priority 2004, dated 2005).

The structures appear in SMILES notation. “And” between values parts separate entries of the source, which are not always exact repeats. Identical values can stand only once. Residues, ends and D or L forms follow the SMILES beside them.

Assay [1] deals with T1, Hsp16.3 (Mycobacterium tuberculosis, UniProt P9WMK1). The assay can be described thus: Peptide inhibition assay for Hsp16.3 chaperon activity (heat-induced ADH aggregation, A360). It is filed as biochemical. The note with it: for IC50: IC50 (concentration of peptide at which 50% inhibition of chaperon activity was observed), 5 µM ADH, 50°C, ADH:Hsp16.3 5:4, A360 at 1200 sec. The source says: The binding of a peptide need not necessarily result in inhibition. Inhibition will happen only if binding leads to significant changes in the active site. […] A part of the invention is the development of a peptide inhibition assay for Hsp16.3. The method is based on aggregation based assays. The standard assay used for assaying the activity of alpha-crystallin like proteins is to study the protection it confers against heat induced aggregation of proteins, the aggregation activity being measured spectrophotometrically. Yeast alcohol dehydrogenase (ADH), purchased from Sisco Research Laboratory, Mumbai, India, is used for aggregation studies. Aggregation of 5 µM ADH at 50°C can be measured as an apparent optical density at 360 nm using a spectrophotometer equipped with a thermostated cuvette holder in a total reaction volume of 500 µl. The chaperon activity of Hsp16.3 can be determined by mixing ADH with Hsp16.3 at a molar ratio of 5:4 which is equivalent to a ratio of about 12:1 between ADH and Hsp16.3 assuming a nonameric structure of Hsp16.3 as the functional unit (Chang et al., 1996) and aggregation rates again determined spectrophotometrically. Then the same experiment can be repeated in the presence of increasing concentrations of peptide inhibitors.
A part of the invention is the peptide inhibition assay for Hsp16.3 comprising of heat treating ADH alone, ADH + Hsp16.3 and ADH + Hsp16.3 + 25, 50 and 100 µM peptide. When ADH is heated it aggregates and there is an increase of optical density. In the presence of Hsp16.3 aggregation is prevented, but in the presence of peptide aggregation is again observed if Hsp16.3 activity is inhibited. Aggregation of 5 µM ADH at 50°C was measured as an apparent optical density at 360 nm using Hitachi spectrophotometer equipped with a thermostated cuvette holder in a total reaction volume of 500 µl. The chaperon activity of Hsp16.3 was determined by mixing ADH with Hsp16.3 at a molar ratio of 5:4 and aggregation rates were again determined spectrophotometrically. Then the same experiment was performed in the presence of increasing concentrations of the Hsp16.3 binding peptides (Seq IDs 10 and 22) (Figure 2).
Aggregation assays were performed by heating 5 µM Alcohol dehydrogenase (ADH) to 50°C directly in a spectrophotometer using a thermostated cuvette holder in a total reaction volume of 500 µl. Absorbance was monitored at 360 nm (A360) for 1200 seconds and readings were taken at every 100 seconds interval. When the A360 values were plotted against time (black triangle) it was observed that absorbance increased with time reaching near saturation level at the1200 sec time point. The increase in absorbance indicates aggregation of ADH. […] However the same effect may be obtained if the peptide instead of inhibiting the activity of Hsp16.3 promotes the aggregation of ADH. To eliminate such a possibility a control experiment was done in which the peptide alone was added to ADH.
To obtain a more quantitative interpretation of the data the % residual chaperon activity of Hsp 16.3 in the presence of different concentrations of inhibitor was derived as follows, the A360 values at the saturation point (1200 secs) being taken into consideration.
The % chaperon activity was then plotted against peptide concentration (Fig. 2B). From the resulting curve it is apparent that chaperon activity decreases exponentially with increasing concentration of peptide. […]

Assay [2] deals with T2, human alphaB-crystallin (Homo sapiens, UniProt P02511).
T2 construct: expression vector from Dr. W.C; Boelens, University of Nijmegen
T2 sequence (P02511 1-175): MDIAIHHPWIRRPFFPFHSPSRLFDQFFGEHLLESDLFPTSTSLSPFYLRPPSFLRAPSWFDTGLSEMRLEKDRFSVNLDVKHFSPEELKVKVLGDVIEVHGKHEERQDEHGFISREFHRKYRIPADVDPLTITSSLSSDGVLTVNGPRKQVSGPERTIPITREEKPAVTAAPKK
Nature of the assay: ADH aggregation assay with alphaB-crystallin instead of Hsp16.3 (specificity). The note with it: 25, 50, 100 µM peptide; ADH:alphaB-crystallin 5:4. The format is biochemical.

In assay [3] the target is T1, Hsp16.3. Nature of the assay: biochemical. Particulars: fluoresceinated peptide 200 nM, 50 mM sodium phosphate buffer, pH 7.5, 300 mM NaCl, 25°C, single-site fit. The format is binding.
For assay [4], the target named is T1, Hsp16.3. The assay can be described thus: NMR (TOCSY) comparison of amide proton chemical shifts of free peptide and peptide with Hsp16.3. The format is binding. The note with it: 0.1 mM protein, 2 mM peptide, 20 mM sodium phosphate pH 7.0, 250 mM NaCl, 4°C. The procedure: All NMR spectra were taken in a Bruker DRX-500 NMR spectrometer equipped with a Z-field gradient probe. All measurements were done in high precision 5-mm NMR tubes in 20 mM sodium phosphate buffer, pH 7.0, containing 250 mM NaCl in 90% H2O and 10% D2O. All NMR experiments were done at 4°C, unless stated otherwise. TOCSY spectra were measured using standard pulse sequences in the Bruker pulse library using WATERGATE water suppression method. Standard Bruker software (Xwin-NMR version 1.3) was used to acquire and process the NMR data. The NMR samples were adjusted to a protein concentration of 0.1 mM and a 20-fold ligand excess (2 mM) over binding sites was used throughout the studies.
The comparison of chemical shifts of amide protons of free peptide (Seq ID 10) (A) and peptide with Hsp16.3 protein (B). Resonance assignments are indicated with a one-letter amino acid code. All NMR spectra were taken in a Bruker DRX-500 spectrometer equipped with a Z-field gradient probe. All measurements were done in high precision 5-mm NMR tubes in 20 mM sodium phosphate buffer, pH 7.0, containing 250 mM NaCl in 90% H2O and 10% D2O at 4°C. TOCSY spectra were measured using standard pulse sequences in the Bruker pulse library using WATERGATE water suppression method. Standard Bruker software (Xwin-NMR version 1.3) was used to acquire and process the NMR data. […]

T1 sequence (P9WMK1 whole entry, looked up): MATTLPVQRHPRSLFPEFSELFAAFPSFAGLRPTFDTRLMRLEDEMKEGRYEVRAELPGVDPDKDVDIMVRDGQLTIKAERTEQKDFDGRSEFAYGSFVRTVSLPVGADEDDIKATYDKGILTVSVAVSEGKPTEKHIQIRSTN

What is called IC50 is the concentration needed to halve the response being measured. Lower therefore signals greater potency in that assay. One may read the Kd as a measure of binding affinity in units of concentration. High values mean weaker binding, low ones tighter binding. As for `CSCC[C@H](NC(=O)[C@@H](N)CCCCN)C(=O)N[C@@H](Cc1c[nH]cn1)C(=O)N[C@@H](C)C(=O)N[C@H](C(=O)N[C@@H](CC(N)=O)C(=O)N[C@@H](Cc1c[nH]cn1)C(=O)NCC(=O)NCC(=O)NCC(=O)N[C@@H](CO)C(N)=O)[C@@H](C)O` [Seq ID 10, Lys-Met-His-Ala-Thr-Asn-His-Gly-Gly-Gly-Ser] (H-KMHATNHGGGS-NH2), in assay [1] (100 µM peptide, A360 at saturation point, ADH:Hsp16.3 5:4), the aggregation restored is recorded as around 70%. The “inhibition of chaperon activity of Hsp16.3” value in assay [1] (25, 50 and 100 µM peptide) is given as “dose dependent inhibition”. The “influence of peptide alone on aggregation of ADH (only peptide control)” value in assay [1] (ADH + 100 µM peptide, no Hsp16.3) was “does not influence the aggregation of ADH”. The IC50 in assay [1] was 47 µM and ~47 µM. For the same compound, the “inhibition of chaperon activity of alphaB-crystallin” value in assay [2] is reported as “no inhibition”. Further, in assay [3], the Kd is ~50 µM and 50 µM. Besides, in assay [4], the “chemical shift of amide protons on addition of Hsp16.3” value was “significant chemical shift occured in both histidines”.
In the case of `CC[C@H](C)[C@H](NC(=O)[C@@H]1CCCN1C(=O)[C@@H](NC(=O)[C@H](Cc1c[nH]cn1)NC(=O)[C@H](CCCNC(=N)N)NC(=O)[C@H](Cc1c[nH]cn1)NC(=O)[C@H](CCCCN)NC(=O)[C@H](Cc1ccccc1)NC(=O)[C@H](Cc1c[nH]cn1)NC(=O)[C@H](Cc1c[nH]cn1)NC(=O)[C@@H]1CCCN1C(=O)[C@@H](N)Cc1ccc(O)cc1)[C@@H](C)CC)C(=O)NCC(=O)NCC(=O)NCC(=O)N[C@@H](CO)C(N)=O` [Seq ID 22, Tyr-Pro-His-His-Phe-Lys-His-Arg-His-Ile-Pro-Ile-Gly-Gly-Gly-Ser] (H-YPHHFKHRHIPIGGGS-NH2), the IC50 in assay [1] is 57 µM and 52 µM. For the same compound, the Kd in assay [3] is ~40 µM and 40 µM.
